Measurements reported in patent US20260130885A1, “ANTIMICROBIAL COMPOSITIONS, PHARMACEUTICAL COMPOSITIONS AND USE THEREOF” (priority 2022, published 2026).
Values after ≈ are worked out from the molar mass of the structure shown. Like-named read-outs stand apart in the source and are kept apart here. One block for each molecule: values may come before it.

What was measured:
MRSA USA300 = assay: Antibacterial activity assay (MIC by broth microdilution, MBC by subculture); format: cell-based, Staphylococcus aureus
Description: (§1) The antimicrobial activity was based on MIC and MBC; MIC is the minimum inhibitory concentration and MBC is the minimum bactericidal concentration. The MIC of individual test agents against MRSA USA300 strains was determined using the broth microdilution method according to CLSI guidelines. Briefly, overnight bacterial cultures in LB medium were diluted 1:50 in fresh LB medium and incubated at 37° C. until reaching an OD600 of 0.5 to 0.6. Bacterial suspensions were diluted to a final concentration of 5×10^5 cfu/mL in fresh CAMHB and then exposed to each test agent at increasing doses in triplicate in 96-well plates for 24 hours at 37° C. The MIC of each agent was defined as the lowest concentration without visible bacterial growth. […] The lowest broth dilution that had no viable bacteria was considered the MBC.
(§2) Then, the combination effect was measured by calculating their corresponding fractional inhibitory concentration index (FICI) with the equation ΣFIC (FICi)=FICA+FICB=(CombA/MICA)+(CombB/MICB), where MICA and MICB are the MICs of drugs A and B alone, respectively, and CombA and CombB are the concentrations of drugs A and B in combination, respectively. Combination effect was defined as an FICI≤0.5, no interaction was defined as an FICI>0.5-4.0, and antagonism was defined as an FICI>4.

S. aureus ATCC29213 = assay: Antibacterial activity assay (MIC, broth microdilution); format: cell-based, Staphylococcus aureus; conditions: for MIC: Staphylococcus aureus
S. aureus NCTC8325 = assay: as above; format: cell-based, Staphylococcus aureus; conditions: for MIC: Staphylococcus aureus
MRSA ATCC33591 = assay: as above; format: cell-based, Staphylococcus aureus; conditions: for MIC: Staphylococcus aureus
MRSA ATCC33592 = assay: as above; format: cell-based, Staphylococcus aureus; conditions: for MIC: Staphylococcus aureus
MRSA ATCC43300 = assay: as above; format: cell-based, Staphylococcus aureus; conditions: for MIC: Staphylococcus aureus
MRSA ATCC49476 = assay: as above; format: cell-based, Staphylococcus aureus; conditions: for MIC: Staphylococcus aureus
MRSA SCCmec VT = assay: as above; format: cell-based, Staphylococcus aureus; conditions: for MIC: Staphylococcus aureus, MRSA
VRSA SJC1200 = assay: as above; format: cell-based, Staphylococcus aureus; conditions: for MIC: Staphylococcus aureus, VRSA
S. aureus DAP-NS = assay: as above; format: cell-based, Staphylococcus aureus; conditions: for MIC: Staphylococcus aureus
[1] = test system: antibiotic-resistant Staphylococcus aureus; assay: MIC against all strains of Table 4; format: cell-based; conditions: agent alone, all the bacterial strains under the examination
Description: as §1
as §2, with “Combination effect was defined as an FICI≤0.5, no interaction was defined as an FICI>0.5-4.0, and antagonism was defined as an FICI>4.” left out
The antibacterial activity of the SC5005-DHA composition against a series of antibiotic-resistant Staphylococcus aureus was analyzed, and the results are shown in Table 4.

- MIC (MRSA USA300; Staphylococcus aureus, agent alone, MRSA USA300 (Table 4), read-out: MIC): 1020 µg/mL
- MIC (MRSA USA300; Staphylococcus aureus, fatty acid alone, read-out: MIC fatty acid): 1020 µg/mL
- MIC (S. aureus ATCC29213; ATCC29213, agent alone): 1020 µg/mL (≈ 3120 µM)
- MIC (S. aureus NCTC8325; NCTC8325, agent alone): 1020 µg/mL (≈ 3120 µM)
- MIC (MRSA ATCC33591; agent alone): 1020 µg/mL (≈ 3120 µM)
- MIC (MRSA ATCC33592; agent alone): 1020 µg/mL (≈ 3120 µM)
- MIC (MRSA ATCC43300; agent alone): 1020 µg/mL (≈ 3120 µM)
- MIC (MRSA ATCC49476; agent alone): 1020 µg/mL (≈ 3120 µM)
- MIC (MRSA SCCmec VT; agent alone): 1020 µg/mL (≈ 3120 µM)
- MIC (VRSA SJC1200; agent alone): 1020 µg/mL (≈ 3120 µM)
- MIC (S. aureus DAP-NS; agent alone): 1020 µg/mL (≈ 3120 µM)
- MIC [1]: 1020 µg/mL
SMILES: CC/C=C\C/C=C\C/C=C\C/C=C\C/C=C\C/C=C\CCC(=O)O [DHA, docosahexaenoic acid]
- MBC (MRSA USA300; Staphylococcus aureus, fatty acid alone, read-out: MBC fatty acid): 1020 µg/mL

- MIC (MRSA USA300; +8 mg/L DHA): 0.00049 µg/mL
- MIC (MRSA USA300; +8 mg/L DHA, MRSA USA300 (Table 4)): 0.00049 µg/mL
- MIC (MRSA USA300; Staphylococcus aureus, amide compound alone, read-out: MIC): 0.0625 µg/mL
- MIC (MRSA USA300; agent alone, MRSA USA300 (Table 4)): 0.0625 µg/mL
- MIC (S. aureus ATCC29213; ATCC29213, +8 mg/L DHA): 0.0039 µg/mL (≈ 0.00988 µM)
- MIC (S. aureus ATCC29213; ATCC29213, agent alone): 0.0625 µg/mL (≈ 0.158 µM)
- MIC (S. aureus NCTC8325; NCTC8325, +8 mg/L DHA): 3.5e-05 µg/mL (≈ 8.87e-05 µM)
- MIC (S. aureus NCTC8325; NCTC8325, agent alone): 0.0625 µg/mL (≈ 0.158 µM)
- MIC (MRSA ATCC33591; +8 mg/L DHA): 6.1e-05 µg/mL (≈ 0.000155 µM)
- MIC (MRSA ATCC33591; agent alone): 0.0625 µg/mL (≈ 0.158 µM)
- MIC (MRSA ATCC33592; +8 mg/L DHA): 0.00098 µg/mL (≈ 0.00248 µM)
- MIC (MRSA ATCC33592; agent alone): 0.0625 µg/mL (≈ 0.158 µM)
- MIC (MRSA ATCC43300; +8 mg/L DHA): 0.00098 µg/mL (≈ 0.00248 µM)
- MIC (MRSA ATCC43300; agent alone): 0.0625 µg/mL (≈ 0.158 µM)
- MIC (MRSA ATCC49476; +8 mg/L DHA): 1.5e-05 µg/mL (≈ 3.8e-05 µM)
- MIC (MRSA ATCC49476; agent alone): 0.0625 µg/mL (≈ 0.158 µM)
- MIC (MRSA SCCmec VT; +8 mg/L DHA): 0.00098 µg/mL (≈ 0.00248 µM)
- MIC (MRSA SCCmec VT; agent alone): 0.125 µg/mL (≈ 0.317 µM)
- MIC (VRSA SJC1200; +8 mg/L DHA): 0.00012 µg/mL (≈ 0.000304 µM)
- MIC (VRSA SJC1200; agent alone): 0.125 µg/mL (≈ 0.317 µM)
- MIC (S. aureus DAP-NS; +8 mg/L DHA): 0.0156 µg/mL (≈ 0.0395 µM)
- MIC (S. aureus DAP-NS; agent alone): 0.0625 µg/mL (≈ 0.158 µM)
SMILES: O=C(Nc1ccc2c(c1)OC(F)(F)O2)Nc1ccc(Cl)c(C(F)(F)F)c1 [PK150]
- MBC (MRSA USA300; +8 mg/L DHA): 0.00098 µg/mL
- synergy of the amide compound with DHA (in words) (MRSA USA300; MIC after adding DHA is less than ¼ of its original MIC, 8 mg/L DHA): synergistic antibacterial activity with DHA
- combination effect (MRSA USA300; MIC, +8 mg/L DHA, MRSA USA300 (Table 4)): (Syn) (Synergy (Syn) was defined as an FICI≤0.5)
- MBC (MRSA USA300; Staphylococcus aureus, amide compound alone, read-out: MBC): 2 µg/mL
- combination effect (S. aureus ATCC29213; MIC, +8 mg/L DHA): (Syn) (Synergy (Syn) was defined as an FICI≤0.5)
- combination effect (S. aureus NCTC8325; MIC, +8 mg/L DHA): (Syn) (Synergy (Syn) was defined as an FICI≤0.5)
- combination effect (MRSA ATCC33591; MIC, +8 mg/L DHA): | (Syn) (Synergy (Syn) was defined as an FICI≤0.5)
- combination effect (MRSA ATCC33592; MIC, +8 mg/L DHA): (Syn) (Synergy (Syn) was defined as an FICI≤0.5)
- combination effect (MRSA ATCC43300; MIC, +8 mg/L DHA): (Syn) (Synergy (Syn) was defined as an FICI≤0.5)
- combination effect (MRSA ATCC49476; MIC, +8 mg/L DHA): | (Syn) (Synergy (Syn) was defined as an FICI≤0.5)
- combination effect (MRSA SCCmec VT; MIC, +8 mg/L DHA): (Syn) (Synergy (Syn) was defined as an FICI≤0.5)
- combination effect (VRSA SJC1200; MIC, +8 mg/L DHA): (Syn) (Synergy (Syn) was defined as an FICI≤0.5)
- combination effect (S. aureus DAP-NS; MIC, +8 mg/L DHA): (Syn) (Synergy (Syn) was defined as an FICI≤0.5)
